Values quoted from earlier work, collected in paper PMC9516332 (Frontiers in Oncology, 2022).

What was measured:
Conditions in all cases: cited from earlier work
[1] = target: panel of 255 wild-type kinases (Homo sapiens, UniProt O60674)
[2] = target: panel of 255 wild-type kinases (Homo sapiens, UniProt P23443)
[3] = target: T1, panel of 255 wild-type kinases (Homo sapiens, UniProt P30530)
T1 sequence (P30530 26-894): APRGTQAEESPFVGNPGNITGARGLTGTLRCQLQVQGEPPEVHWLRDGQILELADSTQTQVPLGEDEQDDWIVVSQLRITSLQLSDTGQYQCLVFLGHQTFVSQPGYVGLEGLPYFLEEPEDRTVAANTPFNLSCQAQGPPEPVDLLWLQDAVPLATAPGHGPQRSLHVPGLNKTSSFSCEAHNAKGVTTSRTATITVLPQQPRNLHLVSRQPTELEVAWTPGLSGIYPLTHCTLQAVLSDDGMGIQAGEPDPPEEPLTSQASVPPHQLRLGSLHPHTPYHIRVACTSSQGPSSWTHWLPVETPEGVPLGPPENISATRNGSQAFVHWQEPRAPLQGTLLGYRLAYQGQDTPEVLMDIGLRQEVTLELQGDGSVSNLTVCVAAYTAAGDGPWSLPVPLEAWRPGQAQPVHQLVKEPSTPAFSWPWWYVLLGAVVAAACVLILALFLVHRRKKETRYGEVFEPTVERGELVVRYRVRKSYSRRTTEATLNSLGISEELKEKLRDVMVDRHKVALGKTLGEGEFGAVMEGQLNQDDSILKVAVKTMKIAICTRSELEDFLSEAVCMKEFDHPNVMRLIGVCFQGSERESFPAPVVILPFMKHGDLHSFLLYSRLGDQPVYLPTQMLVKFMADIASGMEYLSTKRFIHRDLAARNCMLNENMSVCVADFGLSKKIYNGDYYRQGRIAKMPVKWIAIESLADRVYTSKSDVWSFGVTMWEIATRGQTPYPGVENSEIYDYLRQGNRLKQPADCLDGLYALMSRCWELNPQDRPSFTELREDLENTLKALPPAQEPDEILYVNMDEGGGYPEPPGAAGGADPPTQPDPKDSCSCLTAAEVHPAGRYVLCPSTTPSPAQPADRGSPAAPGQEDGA

[4] = target: panel of 255 wild-type kinases (Homo sapiens, UniProt P43405)
[5] = target: panel of 255 wild-type kinases (Homo sapiens, UniProt P49759)
[6] = target: T2, panel of 255 wild-type kinases (Homo sapiens, UniProt P54762)
T2 sequence (P54762 18-984): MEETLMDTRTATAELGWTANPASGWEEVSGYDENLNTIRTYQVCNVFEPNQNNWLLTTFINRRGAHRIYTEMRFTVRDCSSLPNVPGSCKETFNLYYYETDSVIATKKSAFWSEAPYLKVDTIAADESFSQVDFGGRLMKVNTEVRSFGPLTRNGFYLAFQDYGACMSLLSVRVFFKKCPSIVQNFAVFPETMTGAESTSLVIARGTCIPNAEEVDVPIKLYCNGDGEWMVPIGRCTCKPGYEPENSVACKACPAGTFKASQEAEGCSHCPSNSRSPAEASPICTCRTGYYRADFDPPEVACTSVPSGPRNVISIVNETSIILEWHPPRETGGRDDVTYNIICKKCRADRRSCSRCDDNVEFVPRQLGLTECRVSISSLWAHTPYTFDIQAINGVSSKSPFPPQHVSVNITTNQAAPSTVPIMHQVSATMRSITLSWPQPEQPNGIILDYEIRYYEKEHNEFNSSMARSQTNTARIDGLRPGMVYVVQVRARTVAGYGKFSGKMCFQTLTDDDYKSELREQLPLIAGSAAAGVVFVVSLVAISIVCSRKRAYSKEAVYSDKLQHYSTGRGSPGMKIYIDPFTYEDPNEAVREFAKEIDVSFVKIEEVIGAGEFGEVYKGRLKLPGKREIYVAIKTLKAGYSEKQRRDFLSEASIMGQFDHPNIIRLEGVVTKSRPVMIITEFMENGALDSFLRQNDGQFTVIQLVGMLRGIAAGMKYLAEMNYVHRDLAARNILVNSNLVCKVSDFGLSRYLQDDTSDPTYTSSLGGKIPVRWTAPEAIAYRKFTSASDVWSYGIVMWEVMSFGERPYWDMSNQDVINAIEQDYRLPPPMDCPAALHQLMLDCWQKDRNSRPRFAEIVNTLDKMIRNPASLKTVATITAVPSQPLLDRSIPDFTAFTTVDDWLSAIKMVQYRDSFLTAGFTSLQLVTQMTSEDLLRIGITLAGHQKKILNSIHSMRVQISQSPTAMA

[7] = target: panel of 255 wild-type kinases (Homo sapiens, UniProt Q13554)
[8] = target: panel of 255 wild-type kinases (Homo sapiens, UniProt Q7KZI7)
[9] = target: panel of 255 wild-type kinases (Homo sapiens, UniProt Q96SB4)
[10] = target: panel of 255 wild-type kinases (Homo sapiens, UniProt Q9Y6E0)

For `COc1cc(N2CCC(N3CCN(C)CC3)CC2)ccc1Nc1ncc(Cl)c(Nc2ccccc2P(C)(C)=O)n1` [brigatinib], the “%-inhibition at 1 µmol/L, JAK2” value [1] is given as 90%, the “%-inhibition, p70S6K” value [2] is given as 33% and the “%-inhibition AXL” value [3] is given as 97%. The “%-inhibition at 1 µmol/L, SYK” value [4] was 68%, the “%-inhibition at 1 µmol/L, CLK1” value [5] was 100% and the “%-inhibition at 1 µmol/L, EPHB1” value [6] was 36%. For the same compound, the “%-inhibition CaMK2β” value [7] was 64%, the “%-inhibition, MARK2” value [8] was 96% and the “%-inhibition at 1 µmol/L, SRPK1” value [9] was 4%. For the same compound, the “%-inhibition, MST3” value [10] was 13%.
